Experimental data as given in patent publication US7445794B1, “Methods for treating human proliferative diseases, with a combination of fatty acid metabolism inhibitors and glycolytic inhibitors” (The Regents of the University of Colorado, priority 2004, dated 2008).

Tested on: HL60 MDR tumor
Assay: Tumor volume of HL60 MDR tumor implanted in nude mice
Type: in vivo
Conditions: for effect on tumor growth (in words): over the 21 day period, versus control
Description: Mice were purchased from the Animal Production Program of National Cancer Institute, Frederick, Md. The animals used were Athymic Ncr-nu/nu (strain code 01B74). HL60 MDR cells were harvested and reconstituted at 1 million cells per 100 microliters of phosphate buffered saline. One million tumor cells per injection site were implanted subcutaneously on two sites of the animal's back. Treatments began at exactly seven days post tumor implantation. Tumor size/volume was monitored twice weekly using measurement calipers, with the formula Tumor Volume=π×(short diameter)^2×(long diameter)/6.
Treatment groups were: etomoxir at 200 micrograms/day; 2-deoxy-D-glucose at 2.5 mM in 100 microliters daily; and the combination daily of etomoxir at 200 micrograms and 2-deoxy-D-glucose at 2.5 mM in 100 microliters.
HL60 MDR human leukemia cells were cultured and implanted in nude mice as described above under “Materials and Methods”. The mice were given 200 ug of Etomoxir, 2.5 mM 2-Deoxy-D-glucose, or both 200 ug of Etomoxir and 2.5 mM 2-Deoxy-D-glucose given daily by IP injection. Treatment began exactly one week after tumor implantation.

OC[C@H]1O[C@H](O)CC(O)[C@@H]1O (stereo partly drawn) [2-deoxy-D-glucose]
effect on tumor growth (in words): increase in tumor growth

CCOC(=O)C1(CCCCCCOc2ccc(Cl)cc2)CO1 (stereo not drawn) [etomoxir, 2-(6-(4-chlorophenoxy)-hexyl)-oxirane-2-carboxylic acid ethyl ester]
tumor volume Day 7 (Day 7 after implantation (start of daily IP treatment), etomoxir 200 ug, 2-deoxy-D-glucose 2.5 mM): 36 mm^3 | effect on tumor growth (in words): increase in tumor growth
